According to paper PMC9077138, “An investigation on 3-acetyl-7-methoxy-coumarin Schiff bases and their Ru(II) metallates with potent antiproliferative activity and enhanced LDH and NO release” (RSC Advances, 2018):
Read-outs that look alike come from different tables or passages of the source.

Legend:
BSA [1] = biological target: T1, BSA (Bos taurus, UniProt P02769); assay: Three-dimensional fluorescence spectra of BSA; assay type: binding, bovine; settings: BSA 10 μM + compound 10 μM, pH 7.4, 298 K
T1 construct: purchased HiMedia (Mumbai, India)
Source text: To investigate the micro environmental changes in BSA/HSA during interaction with the compounds, three dimensional fluorescence spectroscopic studies have been performed. The changes observed in 3D emission spectra and contour lines of serum albumins in the absence and presence of ligands and complexes are given in Fig. 15, 16, S34 and S35 in the ESI ^† and their corresponding characteristic parameters are provided in Table 5. The emission spectra of serum albumins such as BSA and HSA have shown three characteristic peaks – peaks A and C corresponds to first and second order Rayleigh scattering and peak B corresponds to the spectral characteristics of Trp and Tyr residues of proteins.[57] The emission intensity of Rayleigh first order scattering peak increased upon adding the compounds to serum albumins. […] The fluorescence intensity of peak ‘B’ corresponding to the tryptophan and tyrosine residues decreased with slight blue shift. From the results, it is inferred that the molecular microenvironment and conformational changes of protein occurred after interaction with the complexes and ligands.
Fig. 15 Three-dimensional fluorescence spectra of BSA in the absence and presence of ruthenium(II) complexes 1–4 (pH 7.4, 298 K, [BSA] = 10 μM, [complex] = 10 μM).
Fig. S34. Three-dimensional fluorescence spectra of BSA in the absence and presence of
ligands H 2L1-4 (pH 7.4, 298 K, [HSA] =10 µM, [Ligand] =10 µM) […]

BSA [2] = biological target: T1, BSA; assay: BSA tryptophan fluorescence quenching; assay type: binding, bovine; settings: for Quenching constant kq / Stern–Volmer KSV / number of binding sites n / Binding constant Kbin: BSA; for Binding constant Kbin: Scatchard equation; for quenching of BSA fluorescence intensity at 346 nm: compounds 10–100 μM, BSA 10 μM
Source text: (§1) The obtained results confirmed the interaction of the ligands and complexes with serum albumins. The absorption spectra of the serum albumins in the absence and presence of ligands H2L^1–4 and the complexes 1–4 are given in Fig. S29 in the ESI. ^† On adding ligands and complexes 1–4 to albumins, the absorbance intensity of serum albumins was decreased with a red shift of 2 nm. The observed changes indicated a static quenching mechanism of serum albumins by the ligands and complexes (1–4). To obtain a quantitative insight into the quenching progression, the Stern–Volmer quenching constant (KSV) and the quenching constant (Kq) were calculated from the Stern–Volmer equation using the Io/ICorrversus [Q] plot (Table 4).[53] The observed linearity in the plots (Fig. 13) indicated the ability of the compounds to quench the emission intensity of serum albumins and the order of quenching constant of the compounds is complex 3 > complex 2 > complex 1 > complex 4 > H2L^3 > H2L^2 > H2L^1 > H2L^4.
(§2) Furthermore, the equilibrium binding constant and number of binding sites were evaluated by using the Scatchard equation. The Kbin values were derived from the graph between log[(Fo − F)/F] and log[Q] From the results, we confirmed that the Ru(II) complexes having a large hydrophobic area can interact more efficiently than the ligands with serum albumins via a static pathway. The higher binding affinity of the complexes over the ligands may be due to the efficient binding of protein moiety with the complexed metal ions. Here, the binding affinities of the complexes with serum albumins followed the same order as those with DNA binding studies, complex 3 > complex 2 > complex 1 > complex 4 > H2L^3 > H2L^2 > H2L^1 > H2L^4. Variation in the binding affinity of the compounds with serum albumins depends on the electron-donating ability of the ligand, i.e. the substitution on the N-terminal nitrogen atom. The binding capability of the compounds to serum albumins increased with the increase in electron-donating ability of the substituent on the terminal nitrogen of the coordinated thiosemicarbazone ligand. The obtained quenching constant and binding constant values of these new cyclometallated ruthenium(II) complexes agree well with those reported for other ruthenium(II) complexes.[31,44,54–56] […]
(§3) Serum albumin binding study
(§4) Bovine Serum Albumin (BSA) and human serum albumin were purchased from Hi Media, The protein binding study was performed by tryptophan fluorescence quenching experiments using bovine serum albumin (BSA, 10 µM) or human serum albumin (HSA, 10 µM) as the substrate in phosphate buffer (pH= 7.2). Quenching of the emission intensity of tryptophan residues of BSA at 346 nm (excitation wavelength at 280 nm)/ HSA at 345 nm (excitation wavelength at 290 nm) was monitored using ligands and complexes as quenchers with increasing concentration (10-100µM). Synchronous fluorescence spectra of BSA or HSA with various concentrations of the complexes were obtained from 300 to 400 nm when ∆λ = 60 nm and from 290 to 500 nm when ∆λ = 15 nm. For synchronous fluorescence spectra, the same concentrations of serum albumins and the compounds were also used and the spectra were measured at two different Δλ values (difference between the excitation and emission wavelengths of BSA), such as 15 and 60 nm. Fluorescence and synchronous measurements were performed using a 1 cm quartz cell on a JASCO FP 6600 spectrofluorimeter.
(§5) The quenching data can be analyzed according to the Stern-Volmer equation, […]
(§6) Io/Icorr =K SV[Q]+1 Eq (S2) where Iₒ is the emission intensity in the absence of compound, Icorr is the corrected emission intensity in the presence of compound, KSV is the quenching constant and [Q] is the concentration of the compound.
(§7) In order to correct the inner filter effect, the following equation used Icorr = Iobs*10 (Aexc+Aem)/2 where Icorr is the corrected fluorescence value, Iobs the measured fluorescence value, Aexc is […]

[3] = system: human normal keratinocyte cells (HaCaT); assay: MTT cytotoxicity assay; assay type: cell-based; settings: 48 h, read-out: IC50 values HaCaT
Procedure: In order to investigate the selectivity of the compounds for cancer cells rather than normal cell lines, the compounds were also screened for their anticancer activity on the human normal keratinocyte cells (HaCaT).
Cytotoxic activity of the compounds was tested with human lung cancer cell lines A549, human breast cancer cell lines MCF-7 and human normal keratinocyte cells (HaCaT) by using MTT assay, which was done according to the earlier literature methods[77] and IC50 values obtained from nonlinear regression using GraphPad Prism 5.[78] The LDH release[79] and NO release[80] assays of the compounds was evaluated by the earlier reported methods.

HSA = biological target: T2, HSA (Homo sapiens, UniProt P02768); assay: HSA tryptophan fluorescence quenching; assay type: binding; settings: for Quenching constant kq / Stern–Volmer KSV / number of binding sites n / Binding constant Kbin / Kd: HSA; for Binding constant Kbin / Kd: Scatchard equation; for decrease of HSA fluorescence intensity: compounds 10–100 μM, HSA 10 μM; for Kd: read-out: Binding constant Kbin (converted)
T2 construct: purchased HiMedia (Mumbai, India)
Source text: as §1, §2, §3, §4, §5, §6, §7

T2 sequence (P02768 25-609): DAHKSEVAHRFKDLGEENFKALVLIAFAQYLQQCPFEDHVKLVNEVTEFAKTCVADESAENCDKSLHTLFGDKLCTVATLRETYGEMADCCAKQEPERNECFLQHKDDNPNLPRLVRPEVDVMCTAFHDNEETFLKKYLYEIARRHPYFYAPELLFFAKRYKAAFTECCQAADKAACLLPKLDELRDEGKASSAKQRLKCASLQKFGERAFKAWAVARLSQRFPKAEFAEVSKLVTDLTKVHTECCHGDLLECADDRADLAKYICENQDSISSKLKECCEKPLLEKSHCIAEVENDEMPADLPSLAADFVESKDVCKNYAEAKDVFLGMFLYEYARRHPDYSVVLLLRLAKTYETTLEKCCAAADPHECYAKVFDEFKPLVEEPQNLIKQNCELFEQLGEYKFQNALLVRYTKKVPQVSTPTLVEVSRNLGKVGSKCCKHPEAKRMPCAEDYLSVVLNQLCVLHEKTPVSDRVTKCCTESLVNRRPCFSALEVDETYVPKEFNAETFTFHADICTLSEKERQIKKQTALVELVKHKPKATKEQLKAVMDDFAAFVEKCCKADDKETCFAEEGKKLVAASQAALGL
T1 sequence (P02769 25-607): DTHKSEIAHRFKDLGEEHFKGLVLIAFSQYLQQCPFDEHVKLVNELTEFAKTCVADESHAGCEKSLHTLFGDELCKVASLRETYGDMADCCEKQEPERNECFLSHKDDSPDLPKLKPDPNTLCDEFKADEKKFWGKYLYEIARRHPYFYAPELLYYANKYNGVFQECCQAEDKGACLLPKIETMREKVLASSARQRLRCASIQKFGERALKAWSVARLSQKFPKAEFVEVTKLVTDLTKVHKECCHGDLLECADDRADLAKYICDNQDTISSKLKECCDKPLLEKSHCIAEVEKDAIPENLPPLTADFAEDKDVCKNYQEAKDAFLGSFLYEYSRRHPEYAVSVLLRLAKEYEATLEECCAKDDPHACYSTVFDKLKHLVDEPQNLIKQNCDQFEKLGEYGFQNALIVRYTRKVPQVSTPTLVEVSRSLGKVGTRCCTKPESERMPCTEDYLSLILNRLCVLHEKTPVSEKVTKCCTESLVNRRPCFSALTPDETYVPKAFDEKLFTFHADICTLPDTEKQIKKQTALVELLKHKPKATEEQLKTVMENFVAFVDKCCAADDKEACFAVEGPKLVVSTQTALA

| SMILES | Fluorescence peaks Intensity (F) (BSA [1]) | Fluorescence peaks Peak position λex/λem (BSA [1]) | Fluorescence peaks Stokes Δλ (BSA [1]) | Rayleigh scattering peaks Intensity (F) (BSA [1]) | Quenching constant kq (BSA [2]) | Stern–Volmer KSV (BSA [2]) | number of binding sites n (BSA [2]) | Binding constant Kbin (BSA [2]) | quenching of BSA fluorescence intensity at 346 nm (BSA [2]) | IC50 ([3]; MTT, normal cells) | Quenching constant kq (HSA) | Stern–Volmer KSV (HSA) | number of binding sites n (HSA) | Binding constant Kbin (HSA) | decrease of HSA fluorescence intensity (HSA) | Kd (BSA [2]) | IC50 ([3]; Homo sapiens, HaCaT) | Kd (HSA) |
| --- | --- | --- | --- | --- | --- | --- | --- | --- | --- | --- | --- | --- | --- | --- | --- | --- | --- | --- |
| COc1ccc2[c]3c(c(=O)oc2c1)C(C)=[N+]1N=C(Nc2ccccc2)[S][Ru-4]31([C]#[O+])([P+](c1ccccc1)(c1ccccc1)c1ccccc1)[P+](c1ccccc1)(c1ccccc1)c1ccccc1 [Complex 4, [Ru(7MAC-ptsc)(CO)(PPh3)2]] | 368.76 | 280/340 | 60 nm | 741.59 | 1.454 ± 0.030 × 10^12 M^−1 s^−1 | 1.454 ± 0.030 × 10^4 M^−1 | 1.0486 ± 0.019 | 2.178 ± 0.019 × 10^4 M^−1 | 58.68% | > 40 µM | 0.675 ± 0.008 × 10^12 M^−1 s^−1 | 0.675 ± 0.008 × 10^4 M^−1 | 0.9118 ± 0.025 | 0.297 ± 0.024 × 10^4 M^−1 | 39.80% |  |  |  |
| CCNC1=N[N+]2=C(C)c3[c](c4ccc(OC)cc4oc3=O)[Ru-4]2([C]#[O+])([P+](c2ccccc2)(c2ccccc2)c2ccccc2)([P+](c2ccccc2)(c2ccccc2)c2ccccc2)[S]1 [Complex 3, [Ru(7MAC-etsc)(CO)(PPh3)2]] | 304.43 | 280/339 | 59 nm | 958.23 | 1.756 ± 0.080 × 10^12 M^−1 s^−1 | 1.756 ± 0.080 × 10^4 M^−1 | 1.266 ± 0.0290 | 17.49 ± 0.030 × 10^4 M^−1 | 63.19% | > 40 µM | 1.189 ± 0.030 × 10^12 M^−1 s^−1 | 1.189 ± 0.030 × 10^4 M^−1 | 1.2027 ± 0.030 | 7.194 ± 0.041 × 10^4 M^−1 | 53.45% |  |  |  |
| CNC(=S)NN=C(C)c1cc2ccc(OC)cc2oc1=O [H2L^2, ((1E)-1-(1-(7-methoxy-2-oxo-2H-chromen-3-yl)ethylidene) 4(N)-methylthiosemicarbazone)] |  |  |  |  |  |  |  |  |  |  |  |  |  |  |  | 333 µM | > 40 µM | 392 µM |
| COc1ccc2cc(/C(C)=N\NC(=S)Nc3ccccc3)c(=O)oc2c1 [H2L^4, ((1E)-1-(1-(7-methoxy-2-oxo-2H-chromen-3-yl)ethylidene) 4(N)-phenylthiosemicarbazone)] |  |  |  |  |  |  |  |  |  |  |  |  |  |  |  | 900 µM | > 40 µM | 858 µM |
| COc1ccc2[c]3c(c(=O)oc2c1)C(C)=[N+]1N=C(N)[S][Ru-4]31([C]#[O+])([P+](c1ccccc1)(c1ccccc1)c1ccccc1)[P+](c1ccccc1)(c1ccccc1)c1ccccc1 [Complex 1, [Ru(7MAC-tsc)(CO)(PPh3)2]] | 395.56 | 280/338 | 58 nm | 867.32 | 1.674 ± 0.040 × 10^12 M^−1 s^−1 | 1.674 ± 0.040 × 10^4 M^−1 | 1.0408 ± 0.030 | 2.251 ± 0.029 × 10^4 M^−1 | 62.61% | > 40 µM | 0.741 ± 0.010 × 10^12 M^−1 s^−1 | 0.741 ± 0.010 × 10^4 M^−1 | 1.1329 ± 0.018 | 2.273 ± 0.017 × 10^4 M^−1 | 41.01% |  |  |  |
| CCNC(=S)NN=C(C)c1cc2ccc(OC)cc2oc1=O [H2L^3, ((1E)-1-(1-(7-methoxy-2-oxo-2H-chromen-3-yl)ethylidene) 4(N)-ethylthiosemicarbazone)] |  |  |  |  |  |  |  |  |  |  |  |  |  |  |  | 70.9 µM | > 40 µM | 382 µM |
| CNC1=N[N+]2=C(C)c3[c](c4ccc(OC)cc4oc3=O)[Ru-4]2([C]#[O+])([P+](c2ccccc2)(c2ccccc2)c2ccccc2)([P+](c2ccccc2)(c2ccccc2)c2ccccc2)[S]1 [Complex 2, [Ru(7MAC-mtsc)(CO)(PPh3)2]] | 372.76 | 280/339 | 59 nm | 837.83 | 2.382 ± 0.011 × 10^12 M^−1 s^−1 | 2.382 ± 0.011 × 10^4 M^−1 | 1.0478 ± 0.031 | 3.323 ± 0.027 × 10^4 M^−1 | 71.15% | > 40 µM | 1.088 ± 0.030 × 10^12 M^−1 s^−1 | 1.088 ± 0.030 × 10^4 M^−1 | 1.1859 ± 0.004 | 6.341 ± 0.039 × 10^4 M^−1 | 50.56% |  |  |  |
| COc1ccc2cc(C(C)=NNC(N)=S)c(=O)oc2c1 [H2L^1, ((1E)-1-(1-(7-methoxy-2-oxo-2H-chromen-3-yl)ethylidene)thiosemicarbazone)] |  |  |  |  |  |  |  |  |  |  |  |  |  |  |  | 507 µM | > 40 µM | 477 µM |
